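Growth conditions: 96-well plates. Treatment: test compound, 48 hours, 5 concentrations. Analysis: linear interpolation between bracketing concentrations; unreached endpoints set to highest concentration. TGI marks complete inhibition of growth.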
What was measured:
Experiment in all cases: NCI tumour cell line growth inhibition, 48 h
[1] = system: EKVX NSCLC
[2] = system: SNB-19 CNS
[3] = system: OVCAR-5 ovarian
[4] = system: SR leukemia
[5] = system: KM12 colon
[6] = system: ACHN renal
[7] = system: LXFL 529 NSCLC
[8] = system: A498 renal
[9] = system: KM20L2 colon
[10] = system: SK-MEL-28 melanoma
[11] = system: RPMI-8226 leukemia
[12] = system: DMS 273 small cell lung
[13] = system: SNB-78 CNS
[14] = system: SNB-75 CNS
[15] = system: M19-MEL melanoma
[16] = system: COLO 205 colon
[17] = system: NCI-H460 lung
[18] = system: SF-539 CNS
[19] = system: A549 NSCLC
[20] = system: CAKI-1 renal
[21] = system: M14 melanoma
[22] = system: HCC-2998 colon
[23] = system: HT29 colon
[24] = system: DLD-1 colon
[25] = system: TK-10 renal
[26] = system: SW-620 colon
[27] = system: HL-60(TB) leukemia
[28] = system: RXF 393 renal
[29] = system: UACC-62 melanoma
[30] = system: SN12C renal
[31] = system: HOP-18 NSCLC
[32] = system: K-562 leukemia
[33] = system: MOLT-4 leukemia
[34] = system: UO-31 renal
[35] = system: HOP-92 NSCLC
[36] = system: HOP-62 NSCLC
[37] = system: OVCAR-4 ovarian
[38] = system: SF-295 CNS
[39] = system: XF 498 CNS
[40] = system: SK-MEL-2 melanoma
[41] = system: OVCAR-8 ovarian
[42] = system: NCI-H23 lung
[43] = system: CCRF-CEM leukemia
[44] = system: OVCAR-3 ovarian
[45] = system: SK-OV-3 ovarian
[46] = system: DMS 114 small cell lung
[47] = system: HCT-15 colon
[48] = system: SK-MEL-5 melanoma
[49] = system: NCI-H226 lung
[50] = system: NCI-H522 lung
[51] = system: 786-0 renal
[52] = system: HCT-116 colon
[53] = system: MALME-3M melanoma
[54] = system: UACC-257 melanoma
[55] = system: SF-268 CNS
[56] = system: LOX IMVI melanoma
[57] = system: U251 CNS
[58] = system: RXF-631 renal
[59] = system: IGROV1 ovarian

`Brc1ccc2c(C3CN[C@@H](c4c[nH]c5cc(Br)ccc45)CN3)c[nH]c2c1` (stereo partly drawn) was tested, and the TGI [1] was 21.9 µM, the TGI [2] was 22.4 µM and the TGI [3] was 10.1 µM. It also gave a TGI [4] of 3.08 µM, a TGI [5] of 3.47 µM and a TGI [6] of 12.6 µM. For the same compound, the TGI [7] was 6.86 µM, the TGI [8] was 9.36 µM and the TGI [9] was 4.96 µM. The TGI [10] was 23.8 µM, the TGI [11] was 5.16 µM and the TGI [12] was 5.13 µM. For the same compound, the TGI [13] was 22.7 µM, the TGI [14] was 31.7 µM and the TGI [15] was 19.4 µM. For the same compound, the TGI [16] was 3.49 µM, the TGI [17] was 3.85 µM and the TGI [18] was 12.9 µM. It also gave a TGI [19] of 9.02 µM, a TGI [20] of 25.9 µM and a TGI [21] of 9.6 µM. The TGI [22] was 5.43 µM, the TGI [23] was 9.52 µM and the TGI [24] was 12.8 µM. The TGI [25] was 20.8 µM, the TGI [26] was 9.05 µM and the TGI [27] was 7.72 µM. For the same compound, the TGI [28] was 4.41 µM, the TGI [29] was 17.5 µM and the TGI [30] was 17.7 µM. The TGI [31] was 24.6 µM, the TGI [32] was 9.4 µM and the TGI [33] was 11 µM. The TGI [34] was 18.1 µM, the TGI [35] was 9.29 µM and the TGI [36] was 16.2 µM. The TGI [37] was 13.6 µM, the TGI [38] was 12.4 µM and the TGI [39] was 18.7 µM. It also gave a TGI [40] of 10.9 µM, a TGI [41] of 15.9 µM and a TGI [42] of 7.13 µM. The TGI [43] was 11.7 µM, the TGI [44] was 19.7 µM and the TGI [45] was 16.6 µM. The TGI [46] was 5.14 µM, the TGI [47] was 13.6 µM and the TGI [48] was 14.3 µM. The TGI [49] was 7.96 µM, the TGI [50] was 5.6 µM and the TGI [51] was 9.91 µM. It also gave a TGI [52] of 3.55 µM, a TGI [53] of 26.5 µM and a TGI [54] of 23.4 µM. It also gave a TGI [55] of 19.1 µM, a TGI [56] of 9.03 µM and a TGI [57] of 18.5 µM. For the same compound, the TGI [58] was 12.9 µM and the TGI [59] was 23.6 µM.
For `COc1ccc(NCc2cc(OC)cc(OC)c2)cc1`, the TGI [1] was greater than 100 µM, the TGI [2] was greater than 100 µM and the TGI [3] was 77.7 µM. For the same compound, the TGI [4] was greater than 100 µM, the TGI [5] was greater than 64.9 µM and the TGI [6] was greater than 100 µM. The TGI [7] was greater than 100 µM, the TGI [8] was greater than 100 µM and the TGI [9] was 38.1 µM. For the same compound, the TGI [10] was greater than 100 µM, the TGI [11] was 61.6 µM and the TGI [12] was greater than 70.4 µM. For the same compound, the TGI [13] was 61.8 µM, the TGI [14] was greater than 100 µM and the TGI [15] was greater than 100 µM. For the same compound, the TGI [16] was 27.4 µM, the TGI [17] was greater than 84.6 µM and the TGI [18] was 54.2 µM. It also gave a TGI [19] greater than 100 µM, a TGI [20] greater than 100 µM and a TGI [21] greater than 100 µM. It also gave a TGI [22] of 57.9 µM, a TGI [23] greater than 100 µM and a TGI [24] greater than 100 µM. For the same compound, the TGI [25] was greater than 100 µM, the TGI [26] was greater than 100 µM and the TGI [27] was 32.9 µM. For the same compound, the TGI [28] was 69.8 µM, the TGI [29] was greater than 100 µM and the TGI [30] was greater than 100 µM. For the same compound, the TGI [31] was greater than 100 µM, the TGI [32] was greater than 84.6 µM and the TGI [33] was greater than 100 µM. It also gave a TGI [34] greater than 91.8 µM, a TGI [35] greater than 100 µM and a TGI [36] greater than 100 µM. It also gave a TGI [37] of 82.1 µM, a TGI [38] greater than 100 µM and a TGI [39] greater than 76.8 µM. The TGI [40] was greater than 82.7 µM, the TGI [41] was greater than 100 µM and the TGI [42] was greater than 95.5 µM. For the same compound, the TGI [43] was greater than 92.6 µM, the TGI [44] was greater than 59.3 µM and the TGI [45] was greater than 95.5 µM. The TGI [46] was greater than 100 µM, the TGI [47] was greater than 100 µM and the TGI [48] was greater than 100 µM. The TGI [49] was greater than 100 µM, the TGI [50] was 56.7 µM and the TGI [51] was greater than 100 µM. The TGI [52] was 57.3 µM, the TGI [53] was greater than 100 µM and the TGI [54] was greater than 100 µM. For the same compound, the TGI [55] was greater than 91 µM, the TGI [56] was greater than 100 µM and the TGI [57] was greater than 85 µM. For the same compound, the TGI [58] was greater than 100 µM and the TGI [59] was greater than 100 µM.
